Source: patent US11865110B2, “Thrombin inhibitors, formulations, and uses thereof” (VERSEON INTERNATIONAL CORPORATION, priority 2018, dated 2024)

Test system: platelet activation (mouse thrombin)
Assay: Inhibition of platelet activation in CD-1 mouse plasma
Type: cell-based
Settings: CD-1 mouse platelet-rich plasma, Chrono-Lume luminescence, read-out: EC50 towards inhibited platelet activation
Description: Assays for inhibition of platelet activation in mouse plasma were performed by the following procedure. Test compounds and positive controls were first diluted in a three-fold series in DMSO to generate a range of concentrations for each from 1500 to 0.08 μM. 2 μL of each sample solution was then placed in corresponding wells of a 96-well plate (the “assay plate”) containing 88 μL of a platelet-rich plasma (PRP) mix described below. 10 μL of a 10 nM solution of mouse thrombin in assay buffer (described below) was then added to each well of the assay plate. The plate was then shaken on a Lab-Line Instruments Inc. titer plate shaker for 2 minutes at 300 RPM. 10 uL of Chrono-Lume® solution was then added to each well. The plate was again shaken for 3 minutes at 300 RPM. Luminescence data were recorded from a plate reader. Each sample was measured in duplicate and against blanks with and without mouse thrombin to record background and maximum signal measurements. The IC50 data were automatically calculated from the measured luminescence counts by means appreciated by one of skill in the art.
The various solutions involved in this procedure are described as follows. Assay buffer was made by combining 7.5 mL of 5 M NaCl with 1.19 g of HEPES powder, 0.5 mL of 1 M MgCl2, 1.5 mL of 1 M KCl and 235 mL of water in a 500 mL flask. The solution's pH was adjusted to 7.4 using 10 N NaOH, and then brought up to a final volume of 250 mL using water. A 20 mM solution of H-Gly-Pro-Arg-Pro-OH (GPRP) in this assay buffer was made from commercially obtained powder. The PRP Mix was made by first centrifuging down 600 μL of whole CD-1 mouse blood in 1.8 mL sodium citrate vacutainers at 100×g for 10 minutes at room temperature in an Eppendorf 5810 R centrifuge. The plasma layer was then extracted along with as much as possible of the buffy coat into storage vials. Extractions from multiple animals were often pooled together. To make the final mix, 2.3 mL of these plasma extractions was combined with 7.2 mL of the above assay buffer and 0.5 mL of the 20 mM GPRP solution. […]

Compound	EC50 [µM]
CC(C)(C)C(=O)n1nc(-c2cccn(CCC(=O)O)c2=O)cc1NCc1ccc(Cl)s1 [Compound 1, 3-[3-(5-{[(5-chlorothiophen-2-yl)methyl]amino}-1-(2,2-dimethylpropanoyl)-1H-pyrazol-3-yl)-2-oxo-1,2-dihydropyridin-1-yl]propanoic acid]	15
CC(C)(C)C(=O)n1nc(-c2cccn(CC(=O)O)c2=O)cc1NCc1ccc(Cl)s1 [Compound 4, 2-[3-(5-{[(5-chlorothiophen-2-yl)methyl]amino}-1-(2,2-dimethylpropanoyl)-1H-pyrazol-3-yl)-2-oxo-1,2-dihydropyridin-1-yl]acetic acid]	15
CC(C)(N)Cn1cccc(-c2cc(NCc3ccc(Cl)s3)n(C(=O)c3ccoc3)n2)c1=O [Compound 9, 1-(2-amino-2-methylpropyl)-3-(5-{[(5-chlorothiophen-2-yl)methyl]amino}-1-(furan-3-carbonyl)-1H-pyrazol-3-yl)-1,2-dihydropyridin-2-one]	0.032
